Read-outs that look alike come from different tables or passages of the source. One block for each molecule: values may come before it.
Columns and labels:
[1] = format: in vivo, human; conditions: for percentage of patients who attained an HbA1c of 7% or less: 26 weeks
Description: Two Phase 2 studies have evaluated the safety and efficacy of Compound 1a for the treatment of T2D and another for treatment of obesity or overweight with at least one weight related comorbidity.
The 36 and 45 mg cohorts were subdivided in a 36 mg-1 and 36 mg-2 as well as 45 mg-1 and 45 mg-2 respectively, as different starting doses, dose escalations and dose escalation steps were investigated in these subgroup cohorts (FIG. 4).
Eligible male or female participants were >18 years of age with T2D with a HbA1c 7.0% to 10.5% and a body mass index (BMI) of ≥23 kg/m2, treated with diet and exercise alone or with a stable dose of metformin and with a stable body weight (≤5% body weight gain and/or loss) for at least 3 months prior to screening/Visit 1.
The study period included a 2-week screening/lead in period and a 26-week treatment period. During the treatment period, doses were escalated for all treatment groups. The dose escalation period ranged from 4 to 12 weeks depending on dose group. The initial dose was 2 or 3 mg followed by additional escalation steps depending on assigned cohort (FIG. 4). […] All participants were provided healthy eating and exercise education by study personnel throughout the trial.
Key Safety and tolerability endpoints included the frequency of patient- and investigator-reported adverse events, rate and incidence of hypoglycaemia events (glucose <70 mg/dL [3.9 mmol/L] and ≥54 mg/dL [3.0 mmol/L], or glucose <54 mg/dL [3.0 mmol/L]), and change in safety laboratory parameters, electrocardiogram, and vital signs.
The estimand used for efficacy analyses was an “efficacy estimand”, representing the average treatment effect for the randomized population if the treatment was administered as intended, thus including data from all randomized participants who received at least one dose of study drug and excluding data after permanent discontinuation of study drug. All tests of treatment effects were conducted at a 2-sided alpha level of 0.05 without adjustment for multiple comparisons, and 2-sided 95% CIs were calculated.
Safety analyses were conducted by comparing safety of OFG with placebo and with dulaglutide irrespective of adherence to study drug. The safety analyses were conducted using the safety analysis set, which includes all randomized participants who received at least one dose of study drug. The results were presented in summary statistics, point estimates, and 95% confidence intervals along with p-values for treatment comparisons.

[2] = Phase 1 food effect study A, single 3 mg dose, healthy adults (Example 6); format: in vivo, human; conditions: for AUC(0-inf) / Cmax / half-life: human, in vivo, oral, 3 mg; for AUC(0-inf): read-out: AUC(0-∞), geometric LS mean (geometric CV %); for Cmax: read-out: Cmax, geometric LS mean (geometric CV %); for half-life: read-out: T1/2, geometric mean (range) (converted)
[3] = Phase 1 food effect study B, 16 mg daily dose reached by weekly escalation, healthy adults (Example 6); format: in vivo, human; conditions: for AUC(0-t): read-out: AUC(0-24), geometric LS mean (geometric CV %); for Cmax: read-out: Cmax, geometric LS mean (geometric CV %)
[4] = human, in vivo, oral, 16 mg, STUDY B - 16 mg (with titration), Fasted
[5] = human, in vivo, oral, 16 mg, STUDY B - 16 mg (with titration), Fed

pulse rate changes from baseline ([1]; in vivo): +3.0 to +6.1 bpm | Tmax, median (range) ([2]; STUDY A - 3 mg, Fasted): 8.0 (4.0-24.0) h | AUC(0-inf) ([2]; STUDY A - 3 mg, Fasted): 362 ng·h/mL | Cmax ([2]; STUDY A - 3 mg, Fasted): 13.4 ng/mL | half-life ([2]; STUDY A - 3 mg, Fasted): 29.5 h | AUC(0-inf) ([2]; STUDY A - 3 mg, Fed): 260 ng·h/mL | Cmax ([2]; STUDY A - 3 mg, Fed): 10.1 ng/mL | half-life ([2]; STUDY A - 3 mg, Fed): 27.9 h | Tmax and T½ with or without food ([2]; study A): similar | AUC(0-∞) lower when administered with food ([2]; study A, single 3 mg dose): 24% | Cmax lower in the fed state ([2]; study A, single 3 mg dose, fed vs fasted): 23% | Tmax, median (range) ([3]; STUDY B - 16 mg (with titration), Fasted): 8.0 (4.0-16.0) h | Tmax, median (range) ([3]; STUDY B - 16 mg (with titration), Fed): 8.0 (4.0-24.0) h | AUC(0-t) [3, 4]: 1200 ng·h/mL | Cmax [3, 4]: 80.5 ng/mL | half-life ([3]; human, in vivo, oral, 16 mg, STUDY B - 16 mg (with titration), Fasted, read-out: T1/2, geometric mean (range) (converted)): 26 h | AUC(0-t) [3, 5]: 1050 ng·h/mL | Cmax [3, 5]: 67.5 ng/mL | Tmax and T½ with or without food ([3]; study B): similar | AUC(0-24) lower when administered with food ([3]; study B, 16 mg daily dose): 18% | Cmax lower in the fed state ([3]; study B, 16 mg daily dose, fed vs fasted): 21%
Molecule: Cc1cc(-n2nc3c(c2-n2ccn(-c4ccc5c(cnn5C)c4F)c2=O)[C@H](C)N(C(=O)c2cc4cc([C@H]5CCOC(C)(C)C5)ccc4n2[C@@]2(c4noc(=O)[nH]4)C[C@@H]2C)CC3)cc(C)c1F [OFG, 3-[(1S,2S)-1-[5-[(4S)-2,2-dimethyloxan-4-yl]-2-[(4S)-2-(4-fluoro-3,5-dimethylphenyl)-3-[3-(4-fluoro-1-methylindazol-5-yl)-2-oxoimidazol-1-yl]-4-methyl-6,7-dihydro-4H-pyrazolo[4,3-c]pyridine-5-carbonyl]indol-1-yl]-2-methylcyclopropyl]-4H-1,2,4-oxadiazol-5-one, 0.5 Ca hydrate]
percentage of patients who attained an HbA1c of 7% or less ([1]; across OFG dose groups): 65.2% to 95.8 | most common adverse events ([1]; in vivo): gastrointestinal, mild to moderate in severity | systolic or diastolic blood pressure compared with dulaglutide or placebo ([1]; in vivo): no statistically significant differences | fasting glucose ([1]; versus placebo): significant improvements versus placebo | mean changes from baseline in body weight ([1]; week 26, OFG 3 mg): -3.7 kg | body weight ETD versus dulaglutide ([1]; week 26, OFG 12 mg): -2.6 kg | body weight ETD versus placebo ([1]; week 26, OFG 12 mg): -4.3 kg | mean changes from baseline in body weight ([1]; week 26, OFG 12 mg): -6.5 kg | body weight ETD versus dulaglutide ([1]; week 26, OFG 24 mg): -5.9 kg | body weight ETD versus placebo ([1]; week 26, OFG 24 mg): -7.6 kg | mean changes from baseline in body weight ([1]; week 26, OFG 24 mg): -9.7 kg | body weight ETD versus dulaglutide ([1]; week 26, OFG 36 mg): -5.7 kg | body weight ETD versus placebo ([1]; week 26, OFG 36 mg): -7.4 kg | mean changes from baseline in body weight ([1]; week 26, OFG 36 mg): -9.5 kg | body weight ETD versus dulaglutide ([1]; week 26, OFG 45 mg): -6.2 kg | body weight ETD versus placebo ([1]; week 26, OFG 45 mg): -7.9 kg | mean changes from baseline in body weight ([1]; week 26, OFG 45 mg): -10.1 kg | mean change in HbA1c from baseline ([1]; week 26, across OFG dose groups): −0.77% to −1.67 | treatment emergent adverse events (TEAEs) severity ([2]; study A): mild | TEAE decreased appetite ([3]; study B): 69.7% | TEAE nausea ([3]; study B): 48.5% | TEAE vomiting ([3]; study B): 45.5% | TEAEs occurrence over dosing ([3]; study B): occurred most often with the starting dose and decreased with dose escalation | treatment emergent adverse events (TEAEs) severity ([3]; study B): mild

Molecule: dulaglutide [reference compound]
percentage of patients who attained an HbA1c of 7% or less ([1]; dulaglutide 1.5 mg): 64.1% | pulse rate changes from baseline ([1]; in vivo): +2.3 bpm | mean changes from baseline in body weight ([1]; week 26, dulaglutide): -3.9 kg | mean change in HbA1c from baseline ([1]; week 26, dulaglutide 1.5 mg): −1.1%

From US20260207564A1, “DOSAGE REGIME OF ORFORGLIPRON FOR TREATING A SUBJECT WITH TYPE 2 DIABETES (T2D), OBESITY, OR OVERWEIGHT WITH AT LEAST ONE WEIGHT RELATED COMORBIDITY” (Eli Lilly and Company, priority 2022, published 2026)
